Test results as given in patent US7868006B2, “Heterocyclic substituted piperazines with CXCR3 antagonist activity” (Schering Corporation, priority 2005, dated 2011).

Target: T1, human CXCR3 (N-delta 4) (Homo sapiens, UniProt P49682)
T1 construct: CD8 leader (N); Flag tag (N); expressed in transfected cells; host or cells: mouse pro-B Ba/F3 cells, stably transfected with pME18Sneo-hCXCR3 (N-delta 4); membrane preparation
T1 sequence (P49682 5-368 limits assumed): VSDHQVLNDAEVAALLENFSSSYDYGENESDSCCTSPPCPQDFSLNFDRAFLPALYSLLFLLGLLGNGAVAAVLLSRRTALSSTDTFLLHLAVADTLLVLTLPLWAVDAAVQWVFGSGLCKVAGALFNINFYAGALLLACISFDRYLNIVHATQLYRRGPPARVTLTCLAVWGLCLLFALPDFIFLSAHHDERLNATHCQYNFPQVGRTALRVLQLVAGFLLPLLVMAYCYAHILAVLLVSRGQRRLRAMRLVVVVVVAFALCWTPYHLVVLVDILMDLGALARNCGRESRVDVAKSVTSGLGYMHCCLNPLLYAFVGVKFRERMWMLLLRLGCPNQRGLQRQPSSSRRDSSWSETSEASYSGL
Experiment: Human CXCR3 (N-delta 4) Scintillation Proximity Assay (SPA), [125I] IP-10 binding
Details: IC50 rating; Ba/F3-hCXCR3 (N-delta 4) membranes, 25 pM [125I] IP-10; read-out: IC50
In short: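 Membranes from mouse Ba/F3 pro-B cells stably expressing Flag-tagged human CXCR3 (N-delta 4), 2 μg per point, bound to WGA SPA beads. Compound titrations competed with 25 pM [125I] IP-10 for 3 hr at room temperature in HEPES buffer with Ca2+, Mg2+, NaCl, 1.0% BSA; bead-bound radioactivity counted, […] values reported.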

Row | IC50 | Structure (SMILES)
1 | < 25 nM | CC[C@H]1CN(c2ncc(-c3nc[nH]n3)nc2C)[C@H](C)CN1C1CCN(Cc2ccc(OC(F)(F)F)cc2)CC1 [Compound 148]
2 | < 25 nM | CCNc1nnc(-c2cnc(N3CCN(C4CCN(C(=O)c5ccc(Cl)s5)CC4)[C@@H](CC)C3)c(C)n2)o1 [Compound 149]
3 | < 25 nM | CC[C@H]1CN(c2ncc(C3=NCCN3)nc2C)[C@H](C)CN1C1CCN(Cc2ccc(OC(F)(F)F)cc2)CC1 [Compound 150]
4 | < 25 nM | CC[C@H]1CN(c2ncc(-c3nnc(C)o3)nc2Cl)CCN1C1CCN(C(=O)c2ccc(Cl)nc2N)CC1 [Compound 151]
5 | 25 to 100 nM | CCNc1nnc(-c2cnc(N3C[C@H](CC)N(C4CCN(C(=O)c5ccc(OC)cc5)CC4)C[C@H]3C)c(C)n2)o1 [Compound 152]
6 | 25 to 100 nM | CCNc1nnc(-c2cnc(N3CCN(C4CCN(C(=O)c5ccc(CC)nc5N)CC4)[C@@H](CC)C3)c(C)n2)o1 [Compound 153]
7 | < 25 nM | CC[C@H]1CN(c2ncc(-c3nnc[nH]3)nc2C(F)(F)F)CCN1C1CCN(C(=O)c2ccc(Cl)cc2)CC1 [Compound 154]
8 | < 25 nM | CCNc1nnc(-c2cnc(N3CCN(C4CCN(C(=O)c5ccc(Cl)c(C)c5)CC4)[C@@H](CC)C3)c(C)n2)o1 [Compound 155]
9 | < 25 nM | CCNc1nnc(-c2cnc(N3CCN(C4CCN(C(=O)c5ccc(Cl)cc5C)CC4)[C@@H](CC)C3)c(C)n2)o1 [Compound 156]
10 | < 25 nM | CCNc1nnc(-c2nc(C)c(N3CCN(C4CCN(C(=O)c5ccc(Cl)cc5)CC4)[C@@H](CC)C3)nc2C)o1 [Compound 157]
11 | < 25 nM | CCNc1nnc(-c2cnc(N3CCN(C4CCN(C(=O)c5ccc(Cl)cc5)CC4)[C@@H](CC)C3)c(CC)n2)o1 [Compound 158]
12 | < 25 nM | CC[C@H]1CN(c2ncc(-c3nnc(NC(C)C)o3)nc2C)CCN1C1CCN(C(=O)c2ccc(F)c(F)c2)CC1 [Compound 159]
13 | < 25 nM | CCNc1nnc(-c2cnc(N3C[C@H](CC)N(C4CCN(C(=O)c5ccc(F)c(F)c5)CC4)C[C@H]3C)c(C)n2)o1 [Compound 160]
14 | < 25 nM | CC[C@H]1CN(c2ncc(-c3nnc(NC)o3)nc2C)[C@H](C)CN1C1CCN(C(=O)c2ccc(Cl)nc2N)CC1 [Compound 161]
15 | < 25 nM | CCNc1nnc(-c2cnc(N3CCN(C4CCN([C@@H](CO)c5ccc(Cl)cc5)CC4)[C@@H](CC)C3)c(C)n2)o1 [Compound 162]
16 | < 25 nM | CCNc1nnc(-c2cnc(N3CCN(C4CCN([C@H](CO)c5ccc(Cl)cc5)CC4)[C@@H](CC)C3)c(C)n2)o1 [Compound 163]
17 | < 25 nM | CCNc1nnc(-c2cnc(N3CCN(C4CCN(C(=O)c5ccc(Cl)c(F)c5)CC4)[C@@H](CC)C3)c(C)n2)o1 [Compound 164]
18 | < 25 nM | CCNc1nnc(-c2cnc(N3CCN(C4CCN(C(=O)c5ccc(Cl)cc5F)CC4)[C@@H](CC)C3)c(C)n2)o1 [Compound 165]
19 | < 25 nM | CCNc1nnc(-c2cnc(N3CCN(C4CCN(Cc5ccc(C(F)(F)F)cc5)CC4)[C@@H](CC)C3)c(C)n2)o1 [Compound 166]
20 | < 25 nM | CC[C@H]1CN(c2ncc(-c3nnc(N)o3)nc2C)[C@H](C)CN1C1CCN(Cc2ccc(OC(F)(F)F)cc2)CC1 [Compound 167]
21 | < 25 nM | CCNc1nnc(-c2cnc(N3C[C@H](CC)N(C4CCN(Cc5ccc(Cl)cc5O)CC4)C[C@H]3C)c(C)n2)o1 [Compound 168]
22 | < 25 nM | CCNc1nnc(-c2cnc(N3CCN(C4CCN(CCC(=O)c5ccc(Cl)cc5)CC4)[C@@H](CC)C3)c(C)n2)o1 [Compound 169]
23 | 25 to 100 nM | CC[C@H]1CN(c2ncc(-c3nnc(N)o3)nc2C)[C@H](C)CN1C1CCN([C@H](C(=O)OC)c2ccc(Cl)cc2)CC1 [Compound 170]
24 | < 25 nM | CC[C@H]1CN(c2ncc(-c3nnc(NC(C)C)o3)nc2C)CCN1C1CCN(C(=O)c2ccc(Cl)nc2N)CC1 [Compound 171]

Row | IC50 | Structure (SMILES)
25 | < 25 nM | CCNc1nnc(-c2cnc(N3CCN(C4CCN(C(=O)c5ccc(Cl)nc5N)CC4)[C@@H](CC)C3)c(CC)n2)o1 [Compound 173]
26 | < 25 nM | CCNc1nnc(-c2nc(C)c(N3CCN(C4CCN(C(=O)c5ccc(Cl)nc5N)CC4)[C@@H](CC)C3)nc2N)o1 [Compound 174]
27 | < 25 nM | CCNc1nnc(-c2cnc(N3C[C@H](CC)N(C4CCN(C(CO)c5ccc(F)c(F)c5)CC4)C[C@H]3C)c(C)n2)o1 (stereo partly drawn) [Compound 175]
28 | < 25 nM | CCNc1nnc(-c2cnc(N3CCN(C4CCN(C(=O)c5ccc(C(F)(F)F)cc5)CC4)[C@@H](CC)C3)c(C)n2)o1 [Compound 176]
29 | < 25 nM | CC[C@H]1CN(c2ncc(-c3nnc(N)o3)nc2C)[C@H](C)CN1C1CCN([C@@H](C)c2ccc(OC(F)(F)F)cc2)CC1 [Compound 177]
30 | < 25 nM | CC[C@H]1CN(c2ncc(-c3nnc(N)o3)nc2C)[C@H](C)CN1C1CCN([C@H](C)c2ccc(OC(F)(F)F)cc2)CC1 [Compound 178]
31 | < 25 nM | CCNc1nnc(-c2cnc(N3C[C@H](CC)N(C4CCN(Cc5ccc(F)cc5)CC4)C[C@H]3C)c(C(F)(F)F)n2)o1 [Compound 179]
32 | < 25 nM | CC[C@H]1CN(c2ncc(-c3nnc(NC4(C)CC4)o3)nc2C)[C@H](C)CN1C1CCN(C(=O)c2ccc(Cl)cc2)CC1 [Compound 180]
33 | 25 to 100 nM | CCNc1nnc(-c2cnc(N3CCN(C4CCN(C(=O)c5ccc(Cl)nc5N)CC4)[C@@H](CC)C3)c(C3CC3)n2)o1 [Compound 181]
34 | < 25 nM | CCNc1nnc(-c2cnc(N3CCN(C4CCN(C(C(=O)OC)c5ccc(Cl)cc5)CC4)[C@@H](CC)C3)c(C)n2)o1 (stereo partly drawn) [Compound 182]
35 | < 25 nM | CCNc1nnc(-c2cnc(N3CCN(C4CCN(C(=O)c5ccc(C(F)(F)F)cc5N)CC4)[C@@H](CC)C3)c(C)n2)o1 [Compound 183]
36 | < 25 nM | CCNc1nnc(-c2cnc(N3CCN(C4CCN(C(=O)c5ccc(C(F)(F)F)nc5N)CC4)[C@@H](CC)C3)c(C)n2)o1 [Compound 184]
37 | < 25 nM | CCNc1nnc(-c2cnc(N3C[C@H](CC)N(C4CCN(Cc5ccc(OC(F)(F)F)cc5)CC4)C[C@H]3C)c(C)n2)o1 [Compound 185]
38 | < 25 nM | CC[C@H]1CN(c2ncc(-c3nnc(NC4(C)CC4)o3)nc2C)[C@H](C)CN1C1CCN(C(=O)c2ccc(Cl)nc2N)CC1 [Compound 186]
39 | < 25 nM | CCNc1nnc(-c2cnc(N3CCN(C4CCN(C(=O)c5cc(F)c(Cl)cc5F)CC4)[C@@H](CC)C3)c(Cl)n2)o1 [Compound 187]
40 | < 25 nM | CCNc1nnc(-c2cnc(N3C[C@H](CC)N(C4CCN(C(C(=O)OC)c5ccc(F)c(F)c5)CC4)C[C@H]3C)c(C)n2)o1 (stereo partly drawn) [Compound 188]
41 | < 25 nM | CCNc1nnc(-c2cnc(N3C[C@H](CC)N(C4CCN(C(=O)c5ccc(C(F)(F)F)nc5N)CC4)C[C@H]3C)c(C)n2)o1 [Compound 189]
42 | < 25 nM | CC[C@H]1CN(c2nc(N)c(-c3nnc(NC)o3)nc2Cl)CCN1C1CCN(C(C(=O)OC)c2ccc(Cl)cc2)CC1 (stereo partly drawn) [Compound 190]
43 | < 25 nM | CCNc1nnc(-c2cnc(N3C[C@H](CC)N(C4CCN(C(=O)c5ccc(Cl)cc5)CC4)C[C@H]3C)c(C(F)(F)F)n2)o1 [Compound 191]
44 | < 25 nM | CCOC(=O)CNc1nnc(-c2nc(C)c(N3CCN(C4CCN(C(=O)c5ccc(Cl)nc5N)CC4)[C@@H](CC)C3)nc2N)o1 [Compound 192]
45 | < 25 nM | CC[C@H]1CN(c2nc(N)c(-c3nnc(NCC(=O)NC)o3)nc2C)CCN1C1CCN(C(=O)c2ccc(Cl)nc2N)CC1 [Compound 193]
46 | < 25 nM | CC[C@H]1CN(c2nc(N)c(-c3nnc(NCC(=O)NC4CC4)o3)nc2C)CCN1C1CCN(C(=O)c2ccc(Cl)nc2N)CC1 [Compound 194]
47 | 25 to 100 nM | CCOC(=O)CNc1nnc(-c2cnc(N3CCN(C4CCN(Cc5ccc(F)c(F)c5COCc5ccccc5)CC4)[C@@H](CC)C3)c(C)n2)o1 [Compound 195]
48 | 25 to 100 nM | CC[C@H]1CN(c2ncc(-c3nnc(N(CC)S(=O)(=O)c4ccc(C)cc4)o3)nc2C)C(C)CN1C1CCN(C(=O)c2ccc(Cl)cc2)CC1 (stereo partly drawn) [Compound 196]
